Measurements published in patent publication US7276493B2, “Fungicide for treating plants” (Valent BioSciences Corporation, priority 2003, dated 2007).

How the values were obtained:
Botrytis cinerea [1] = assay: Contact evaluation (microtiter plate); assay type: cell-based; design: key: Full: fungal inhibition was rated as full, partial, or none; Partial: fungal inhibition was rated as full, partial, or none; None: fungal inhibition was rated as full, partial, or none
Experimental: (§1) Compound solution: Contact evaluations were conducted to determine the anti-fungal activity of each compound against Botrytis cinerea, Sclerotinia sclerotiorum, Pythium aphanidermatum, Rhizoctonia solani, Cercospora arachidicola, Mycosphaerella fijiensis, and Monilinia laxa. Five milligrams of each compound were dissolved in 0.5 milliliter of DMSO for a compound stock solution of 1.0% w/v. Compound stock solutions were serial diluted with DMSO to 20, 10, and 2 ppm final well concentration. Fungi preparation: Botrytis cinerea spores were taken from 6-week-old cultures grown at 22C on full strength potato dextrous agar (PDA) plates. Sclerotinia sclerotiorum, Pythium aphanidermatum, Rhizoctonia solani, and Monilinia laxa mycelia were taken from 4- to 10-day-old shake flask cultures grown at room temperature on full strength potato dextrous broth (PDB). Cercospora arachidicola mycelia were taken from 10- to 14-day-old shake flask cultures grown at room temperature on a full strength PDB amended with peanut oil. Mycosphaerella fijiensis mycelia were taken from 10- to 14-day-old shake flask cultures grown at room temperature on V8 juice broth. Sclerotinia sclerotiorum, Pythium aphanidermatum, Rhizoctonia solani, Cercospora arachidicola, and Mycosphaerella fijiensis mycelia (0.4 g mycelia) were blended for 45 seconds in 20 mL sterile de-ionized water. Monilinia laxa mycelia (1 g mycelia) was blended for 45 seconds in 30 mL of sterile de-ionized water. Botrytis cinerea spores were diluted with quarter strength PDB to 1×10^5 spores/mL final well concentration. All mycelia were diluted in water (1:5 mycelia:water) before distributing into the wells. Microtiter plate preparation: Compound solution (10:L), quarter strength PDB (900:L) and fungi preparation (100:L) were sequentially distributed into 48-well microtiter plates (n=3 replications/compound/rate). A blank consisted of quarter strength PDB and fungi preparation. Commercial fungicide controls (100 ppm diluted with water) consisted of Scala for Botrytis cinerea, Dithane F-45 for Mycosphaerella fijiensis, and Benlate for Sclerotinia sclerotiorum, Pythium aphanidermatum, Rhizoctonia solani, Cercospora arachidicola, and Monilinia laxa. Plates were shaken in a circular rotator at room temperature for 20 minutes, then incubated at 25C for 24 to 72 hours, depending on the pathogen. Fungal control ratings: Fungal growth in wells containing the compounds were compared to the positive control and fungal inhibition was rated as full, partial, or none. Final readings were the average of the three wells (Table 1).

Cercospora arachidicola = assay: Contact evaluation (microtiter plate); assay type: cell-based; design: key: Full: fungal inhibition was rated as full, partial, or none; Partial: fungal inhibition was rated as full, partial, or none; None: fungal inhibition was rated as full, partial, or none
Experimental: as §1

Monilinia laxa = assay: Contact evaluation (microtiter plate); assay type: cell-based; design: key: Full: fungal inhibition was rated as full, partial, or none; Partial: fungal inhibition was rated as full, partial, or none; None: fungal inhibition was rated as full, partial, or none
Experimental: as §1

Mycosphaerella fijiensis = assay: Contact evaluation (microtiter plate); assay type: cell-based; design: key: Full: fungal inhibition was rated as full, partial, or none; Partial: fungal inhibition was rated as full, partial, or none; None: fungal inhibition was rated as full, partial, or none
Experimental: as §1

Pythium aphanidermatum = assay: Contact evaluation (microtiter plate); assay type: cell-based; design: key: Full: fungal inhibition was rated as full, partial, or none; Partial: fungal inhibition was rated as full, partial, or none; None: fungal inhibition was rated as full, partial, or none
Experimental: as §1

Rhizoctonia solani = assay: Contact evaluation (microtiter plate); assay type: cell-based; design: key: Full: fungal inhibition was rated as full, partial, or none; Partial: fungal inhibition was rated as full, partial, or none; None: fungal inhibition was rated as full, partial, or none; settings: Rhizoctinia solani
Experimental: as §1

Sclerotinia sclerotiorum = assay: Contact evaluation (microtiter plate); assay type: cell-based; design: key: Full: fungal inhibition was rated as full, partial, or none; Partial: fungal inhibition was rated as full, partial, or none; None: fungal inhibition was rated as full, partial, or none; settings: Sclerotinia sclerotionum
Experimental: as §1

Botrytis cinerea [2] = assay: Detached bean leaf bioassay, fungal control; assay type: in vivo; settings: detached bean leaf (Phaseolus vulgaris), three days after inoculation, 100 minus percent necrotic area
Experimental: Compound solution: Compound solutions were prepared by diluting compound stock solutions (1.0% w/v compound in DMSO) to 200 ppm with 0.01% w/v Triton X-100.
Spore solution preparation: Botrytis cinerea spores were taken from 6-week-old cultures grown at 22C on full strength potato dextrous agar (PDA) plates and harvested in 1:16 frozen orange juice concentrate:water. Botrytis cinerea spore solutions were prepared by diluting spore cultures to 5×10^4 spores/mL with 1:16 frozen orange juice concentrate:water.
Plant material: Middle trifoliate leaves of greenhouse grown Phaseolus vulgaris (Bush bean cv. Blue Lake 274) were excised and placed on a plastic grid above a tray containing moist towels.
Treatment method: One half of the adaxial surface of the leaf was treated with the compound solution (100:L) using a 3 cm Bacti Cell Spreader. A blank consisted of 0.01% w/v Triton X-100. A commercial fungicide control (200 ppm diluted with water) consisted of Scala. […]
Fungal control rating: Three days after inoculation with Botrytis, the percent necrotic area under the inoculation droplet was determined. Since the areas under the blank (0.01% w/v Triton X-100) were 100% infected, fungal control was expressed as 100 minus the percent necrotic area, and thus 0% infected is 100% fungal control (n=3 leaves/compound, 5 inoculation droplets/leaf, Table 2).

[3] = tested on: Phaseolus vulgaris (Bush bean cv. Blue Lake 274); assay: Detached bean leaf bioassay, phytotoxicity rating; assay type: in vivo
Experimental: Compound solution: Compound solutions were prepared by diluting compound stock solutions (1.0% w/v compound in DMSO) to 200 ppm with 0.01% w/v Triton X-100. Plant material: Middle trifoliate leaves of greenhouse grown Phaseolus vulgaris (Bush bean cv. Blue Lake 274) were excised and placed on a plastic grid above a tray containing moist towels. Treatment method: One half of the adaxial surface of the leaf was treated with the compound solution (100:L) using a 3 cm Bacti Cell Spreader. A blank consisted of 0.01% w/v Triton X-100. A commercial fungicide control (200 ppm diluted with water) consisted of Scala. After the solutions dried, the trays containing the leaves were covered and held one day in a growth chamber (22C). The adaxial surfaces of the leaves were then inoculated with 5–60:L droplets of Botrytis cinerea spore solution. Phytotoxicity ratings: Phytotoxicity was rated as 0=no phytotoxicity, 1=slight phytotoxicity, 2=moderate phytotoxicity, or 3=excessive phytotoxicity (Table 2).

For `C/C1=C\C=C\CCC(C)CNC(=O)/C=C/C=C/C(C)C(O)C/C=C(\C)C1` (centres unmarked) [formula I], the “Control of fungi (full, partial, none)” value (Botrytis cinerea [1]; fungicide rate 2 ppm) was “Full”, the “Control of fungi (full, partial, none)” value (Botrytis cinerea [1]; fungicide rate 10 ppm) was “Full” and the “Control of fungi (full, partial, none)” value (Botrytis cinerea [1]; fungicide rate 20 ppm) was “Full”. The “Control of fungi (full, partial, none)” value (Cercospora arachidicola; fungicide rate 2 ppm) was “Full”, the “Control of fungi (full, partial, none)” value (Cercospora arachidicola; fungicide rate 10 ppm) was “Full” and the “Control of fungi (full, partial, none)” value (Cercospora arachidicola; fungicide rate 20 ppm) was “Full”. For the same molecule, the “Control of fungi (full, partial, none)” value (Monilinia laxa; fungicide rate 2 ppm) was “Full”, the “Control of fungi (full, partial, none)” value (Monilinia laxa; fungicide rate 10 ppm) was “Full” and the “Control of fungi (full, partial, none)” value (Monilinia laxa; fungicide rate 20 ppm) was “Full”. For the same molecule, the “Control of fungi (full, partial, none)” value (Mycosphaerella fijiensis; fungicide rate 2 ppm) was “Full”, the “Control of fungi (full, partial, none)” value (Mycosphaerella fijiensis; fungicide rate 10 ppm) was “Full” and the “Control of fungi (full, partial, none)” value (Mycosphaerella fijiensis; fungicide rate 20 ppm) was “Full”. The “Control of fungi (full, partial, none)” value (Pythium aphanidermatum; fungicide rate 2 ppm) was “Full”, the “Control of fungi (full, partial, none)” value (Pythium aphanidermatum; fungicide rate 10 ppm) was “Full” and the “Control of fungi (full, partial, none)” value (Pythium aphanidermatum; fungicide rate 20 ppm) was “Full”. The “Control of fungi (full, partial, none)” value (Rhizoctonia solani; fungicide rate 2 ppm) was “Full”, the “Control of fungi (full, partial, none)” value (Rhizoctonia solani; fungicide rate 10 ppm) was “Full” and the “Control of fungi (full, partial, none)” value (Rhizoctonia solani; fungicide rate 20 ppm) was “Full”. For the same molecule, the “Control of fungi (full, partial, none)” value (Sclerotinia sclerotiorum; fungicide rate 2 ppm) was “Full”, the “Control of fungi (full, partial, none)” value (Sclerotinia sclerotiorum; fungicide rate 10 ppm) was “Full” and the “Control of fungi (full, partial, none)” value (Sclerotinia sclerotiorum; fungicide rate 20 ppm) was “Full”. The “Botrytis cinerea control (200 ppm)” value (Botrytis cinerea [2]) was 31% and the “Phytotoxity (200 ppm)” value [3] was “None”.
